Experimental data reported in ChEMBL document CHEMBL1909046, “DrugMatrix in vitro pharmacology data”.

Experiments:
[1] = target: T1, C-C chemokine receptor type 4 (Homo sapiens, UniProt P51679); type: cell membranes, Membrane; details: chem-1; also: in other assays of this panel Not Active means under 50% inhibition at 10 µM
T1 sequence (P51679 whole entry): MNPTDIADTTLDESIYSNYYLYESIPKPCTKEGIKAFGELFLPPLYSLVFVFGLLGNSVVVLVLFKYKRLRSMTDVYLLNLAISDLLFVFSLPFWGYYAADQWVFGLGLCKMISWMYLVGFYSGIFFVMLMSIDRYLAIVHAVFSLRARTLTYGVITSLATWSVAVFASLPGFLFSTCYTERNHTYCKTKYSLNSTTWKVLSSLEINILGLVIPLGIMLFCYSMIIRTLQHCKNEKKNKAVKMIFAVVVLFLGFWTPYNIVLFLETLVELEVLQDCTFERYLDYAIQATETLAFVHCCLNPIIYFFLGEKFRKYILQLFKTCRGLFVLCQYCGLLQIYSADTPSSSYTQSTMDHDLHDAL

[2] = target: Protein phosphatase 3 catalytic subunit alpha (Homo sapiens, UniProt Q08209); parameters: species or system Escherichia coli;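 also: inhibition of calcineurin (PP2B) enzyme activity, measured with DiFMUP as the substrate; in other assays of this panel Not Active means under 50% inhibition at 10 µM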
[3] = target: T2, Receptor-type tyrosine-protein phosphatase C (Homo sapiens, UniProt P08575); parameters: species or system Escherichia coli;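 also: inhibition of CD45 enzyme activity measured using DiFMUP as substrate; in other assays of this panel Not Active means under 50% inhibition at 10 µM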
T2 sequence (P08575 whole entry): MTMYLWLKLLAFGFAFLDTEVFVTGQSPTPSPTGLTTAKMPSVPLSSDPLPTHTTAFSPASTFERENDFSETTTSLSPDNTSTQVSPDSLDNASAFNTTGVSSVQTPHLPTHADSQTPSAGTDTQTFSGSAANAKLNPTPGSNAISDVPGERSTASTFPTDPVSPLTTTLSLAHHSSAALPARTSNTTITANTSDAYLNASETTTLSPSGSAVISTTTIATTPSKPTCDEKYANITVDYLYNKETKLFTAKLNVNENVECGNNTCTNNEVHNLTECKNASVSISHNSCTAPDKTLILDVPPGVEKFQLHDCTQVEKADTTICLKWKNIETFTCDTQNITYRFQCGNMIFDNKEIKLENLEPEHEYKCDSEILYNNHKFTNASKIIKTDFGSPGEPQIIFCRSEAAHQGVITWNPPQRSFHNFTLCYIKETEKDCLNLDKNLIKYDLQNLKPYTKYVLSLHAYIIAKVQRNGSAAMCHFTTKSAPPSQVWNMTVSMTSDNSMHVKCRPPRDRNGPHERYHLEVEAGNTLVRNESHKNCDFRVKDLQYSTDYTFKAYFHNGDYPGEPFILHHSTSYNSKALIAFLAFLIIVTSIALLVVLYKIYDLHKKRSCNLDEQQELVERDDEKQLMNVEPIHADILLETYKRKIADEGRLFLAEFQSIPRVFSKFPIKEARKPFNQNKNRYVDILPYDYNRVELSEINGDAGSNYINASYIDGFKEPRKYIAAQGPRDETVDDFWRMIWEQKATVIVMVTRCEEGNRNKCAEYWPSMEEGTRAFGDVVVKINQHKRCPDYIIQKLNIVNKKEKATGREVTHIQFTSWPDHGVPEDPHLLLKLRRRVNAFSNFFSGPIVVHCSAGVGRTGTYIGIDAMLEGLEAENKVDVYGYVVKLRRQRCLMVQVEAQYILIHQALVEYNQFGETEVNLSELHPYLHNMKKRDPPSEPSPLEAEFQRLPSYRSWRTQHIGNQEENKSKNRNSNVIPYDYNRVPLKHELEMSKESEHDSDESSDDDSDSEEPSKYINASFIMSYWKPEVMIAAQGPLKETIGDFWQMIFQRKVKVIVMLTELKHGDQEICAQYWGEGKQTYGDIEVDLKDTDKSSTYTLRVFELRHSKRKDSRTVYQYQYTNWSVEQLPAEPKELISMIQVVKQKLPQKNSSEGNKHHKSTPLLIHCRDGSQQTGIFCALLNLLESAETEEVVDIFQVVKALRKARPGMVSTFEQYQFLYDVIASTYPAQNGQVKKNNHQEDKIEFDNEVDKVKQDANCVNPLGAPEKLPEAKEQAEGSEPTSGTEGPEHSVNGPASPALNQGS

[4] = target: Matrix metalloproteinase-9 (Homo sapiens, UniProt P14780); assay: biochemical; type: cell-based;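 also: inhibition of isolated MMP-9 enzyme activity toward a synthetic peptide substrate, from the DrugMatrix protease screening panel; in other assays of this panel Not Active means under 50% inhibition at 10 µM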
[5] = DRUGMATRIX: Potassium Channel [KATP] radioligand binding (ligand: [3H] Glyburide); type: cell membranes, Membrane; details: hit-t15; Not Active = under 50% inhibition at 10 µM
[6] = target: T3, C-X-C chemokine receptor type 1 (Homo sapiens, UniProt P25024); also: in other assays of this panel Not Active means under 50% inhibition at 10 µM
T3 sequence (P25024 whole entry): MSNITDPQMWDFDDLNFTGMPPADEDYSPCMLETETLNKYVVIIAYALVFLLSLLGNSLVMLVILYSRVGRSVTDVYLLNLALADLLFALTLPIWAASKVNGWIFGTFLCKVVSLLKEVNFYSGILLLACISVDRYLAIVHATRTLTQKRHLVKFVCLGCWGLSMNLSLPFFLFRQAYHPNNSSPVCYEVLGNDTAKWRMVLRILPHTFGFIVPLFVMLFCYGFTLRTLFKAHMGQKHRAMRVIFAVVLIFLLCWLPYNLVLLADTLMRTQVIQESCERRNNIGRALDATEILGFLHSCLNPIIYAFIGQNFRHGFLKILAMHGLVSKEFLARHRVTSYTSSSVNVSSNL

[7] = target: T4, Alpha-1D adrenergic receptor (Homo sapiens, UniProt P25100); type: cell membranes, HEK293, Membrane; details: for Ki: read-out: Ki
T4 sequence (P25100 whole entry): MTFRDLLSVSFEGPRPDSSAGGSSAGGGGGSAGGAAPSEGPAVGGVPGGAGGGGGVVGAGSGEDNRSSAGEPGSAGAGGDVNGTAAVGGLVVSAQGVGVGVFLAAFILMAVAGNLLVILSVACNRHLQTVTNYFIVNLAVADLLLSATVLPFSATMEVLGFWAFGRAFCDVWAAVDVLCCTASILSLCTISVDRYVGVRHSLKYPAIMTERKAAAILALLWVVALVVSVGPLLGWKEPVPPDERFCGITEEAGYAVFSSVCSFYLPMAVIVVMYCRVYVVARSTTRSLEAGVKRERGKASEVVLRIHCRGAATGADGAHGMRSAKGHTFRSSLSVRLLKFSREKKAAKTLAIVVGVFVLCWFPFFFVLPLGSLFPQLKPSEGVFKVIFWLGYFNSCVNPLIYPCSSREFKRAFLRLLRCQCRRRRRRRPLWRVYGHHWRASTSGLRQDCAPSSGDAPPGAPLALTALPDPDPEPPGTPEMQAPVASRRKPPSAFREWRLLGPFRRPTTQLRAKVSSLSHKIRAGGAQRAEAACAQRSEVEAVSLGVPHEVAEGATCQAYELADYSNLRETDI

Matrix metalloproteinase-9, sequence (P14780 whole entry): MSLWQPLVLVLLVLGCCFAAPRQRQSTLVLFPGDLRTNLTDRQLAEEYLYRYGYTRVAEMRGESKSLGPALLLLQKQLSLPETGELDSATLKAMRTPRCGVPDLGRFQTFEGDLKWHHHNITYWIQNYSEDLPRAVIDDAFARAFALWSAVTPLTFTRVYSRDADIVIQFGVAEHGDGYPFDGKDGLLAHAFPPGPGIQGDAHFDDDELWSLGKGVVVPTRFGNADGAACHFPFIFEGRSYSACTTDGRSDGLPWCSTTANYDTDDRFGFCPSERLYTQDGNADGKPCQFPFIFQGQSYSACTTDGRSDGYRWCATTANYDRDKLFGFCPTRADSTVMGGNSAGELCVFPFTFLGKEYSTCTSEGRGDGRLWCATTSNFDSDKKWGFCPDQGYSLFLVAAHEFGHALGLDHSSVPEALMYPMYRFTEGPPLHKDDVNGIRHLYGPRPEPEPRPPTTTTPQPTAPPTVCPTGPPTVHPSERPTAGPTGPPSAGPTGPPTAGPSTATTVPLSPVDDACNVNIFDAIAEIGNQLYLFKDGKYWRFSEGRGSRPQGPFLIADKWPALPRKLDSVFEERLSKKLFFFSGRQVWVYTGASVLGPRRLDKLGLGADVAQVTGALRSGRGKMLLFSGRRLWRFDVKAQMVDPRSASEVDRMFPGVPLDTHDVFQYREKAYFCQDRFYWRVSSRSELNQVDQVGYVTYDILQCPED

| Structure (SMILES) | IC50 [1] | IC50 [2] | IC50 [3] | IC50 [4] | IC50 [5] | Ki [5] | IC50 [6] | IC50 ([7]; hek293) | IC50 ([7]; read-out: IC50) [nM] | Ki [7] [nM] |
| --- | --- | --- | --- | --- | --- | --- | --- | --- | --- | --- |
| CC(C)(Oc1ccc(C2CC2(Cl)Cl)cc1)C(=O)O (centres undefined) [CIPROFIBRATE] | Not Active | Not Active | Not Active | Not Active | Not Active | Not Active | Not Active | Not Active | – | – |
| CO[C@H]1[C@@H](O)[C@H](N)[C@@H](O[C@H]2O[C@H]([C@H](C)N)CC[C@H]2N)[C@H](O)[C@@H]1N(C)C(=O)CN [ASTROMICIN] | Not Active | Not Active | Not Active | Not Active | Not Active | Not Active | Not Active | Not Active | – | – |
| Clc1cc2c(cc1Cl)Oc1cc(Cl)c(Cl)cc1O2 [2,3,7,8-TETRACHLORODIBENZO-P-DIOXIN] | Not Active | Not Active | Not Active | Not Active | Not Active | Not Active | Not Active | Not Active | – | – |
| CNC(=C[N+](=O)[O-])NCCSCc1csc(CN(C)C)n1 [NIZATIDINE] | Not Active | Not Active | Not Active | Not Active | Not Active | Not Active | Not Active | Not Active | – | – |
| N=C(N)N/N=C/c1c(Cl)cccc1Cl [GUANABENZ] | Not Active | Not Active | Not Active | Not Active | Not Active | Not Active | Not Active | – | 472 | 232 |
| CC(C)C[C@H]1C(=O)N2CCC[C@H]2[C@]2(O)O[C@](NC(=O)[C@@H]3C=C4c5cccc6[nH]c(Br)c(c56)C[C@H]4N(C)C3)(C(C)C)C(=O)N12 [BROMOCRIPTINE] | Not Active | Not Active | Not Active | Not Active | Not Active | Not Active | Not Active | – | 30 | 15 |
| COc1ccc2cc(CCC(C)=O)ccc2c1 [NABUMETONE] | Not Active | Not Active | Not Active | Not Active | Not Active | Not Active | Not Active | Not Active | – | – |
| CC(C(=O)O)c1ccc(CC2CCCC2=O)cc1 (centres undefined) [LOXOPROFEN] | Not Active | Not Active | Not Active | Not Active | Not Active | Not Active | Not Active | Not Active | – | – |
| CCCCCC[C@H]1C(=O)O[C@H](C)[C@H](NC(=O)c2cccc(NC=O)c2O)C(=O)O[C@@H](C)[C@@H]1OC(=O)CC(C)C [ANTIMYCIN A] | Not Active | Not Active | Not Active | Not Active | Not Active | Not Active | Not Active | Not Active | – | – |
